From ChEMBL document CHEMBL2407010, “Nitric oxide donating anilinopyrimidines: synthesis and biological evaluation as EGFR inhibitors” (Eur J Med Chem, 2013)
Activity calls are given as the source filed them. No cut-off for these calls is given here.

How the values were obtained:
[1] = target: T1, Epidermal growth factor receptor (Homo sapiens, UniProt P00533); experiment: Inhibition of EGFR phosphorylation in human NCI-H1975 cells at 0.01 to 1 uM after 6 hrs by Western blotting analysis; assay type: cell-based
[2] = target: T1, Epidermal growth factor receptor; experiment: Inhibition of EGFR phosphorylation in human NCI-H1975 cells assessed as reduction of phosphorylated Erk level at 1 uM after 6 hrs by Western blotting analysis; assay type: cell-based
[3] = target: T1, Epidermal growth factor receptor; experiment: Inhibition of EGFR phosphorylation in human NCI-H1975 cells assessed as reduction of phosphorylated Akt level at 1 uM after 6 hrs by Western blotting analysis; assay type: cell-based
[4] = target: Epidermal growth factor receptor (Homo sapiens, UniProt P00533, L858R/T790M); experiment: Inhibition of EGFR L858R/T790M mutant (unknown origin) using Tyr 4 peptide as substrate after 1.5 hrs by FRET based Z'-lyte assay; assay type: protein assay
[5] = test system: A-431; experiment: Antiproliferative activity against human A431 cells expressing wild type EGFR after 72 hrs by MTT assay; details: A-431, 72 h
[6] = target: Epidermal growth factor receptor (Homo sapiens, UniProt P00533, L858R); experiment: Inhibition of EGFR L858R mutant (unknown origin) using Tyr 4 peptide as substrate after 1.5 hrs by FRET based Z'-lyte assay; assay type: protein assay
[7] = test system: NCI-H1975; experiment: Induction of nitric oxide production in human NCI-H1975 cells expressing EGFR L858R/T790M mutant at 100 uM after 72 hrs by Griess assay; assay type: functional, cell-based
[8] = test system: NCI-H1975; experiment: Antiproliferative activity against human NCI-H1975 cells expressing EGFR L858R/T790M mutant after 72 hrs by MTT assay; details: NCI-H1975, 72 h
[9] = target: T1, Epidermal growth factor receptor; experiment: Inhibition of wild type EGFR (unknown origin) using Tyr 4 peptide as substrate after 1.5 hrs by FRET based Z'-lyte assay
[10] = Antiproliferative activity against human HCC827 cells expressing EGFR E746_A750 deletion mutant after 72 hrs by MTT assay; details: HCC827, 72 h
[11] = Antiproliferative activity against human 16HBE cells expressing wild type EGFR after 72 hrs by MTT assay; details: 16HBE14o-
[12] = test system: A549; experiment: Antiproliferative activity against wild type EGFR/k-Ras dependent human A549 cells after 72 hrs by MTT assay; details: A549, 72 h
[13] = Ratio of IC50 for human HCC827 cells expressing EGFR E746_A750 deletion mutant to IC50 for human 16HBE cells
[14] = test system: NCI-H1975; experiment: Antiproliferative activity against human NCI-H1975 cells expressing EGFR L858R/T790M mutant at 1 to 20 uM after 24 hrs by MTT assay in presence of hemoglobin; assay type: functional, cell-based
[15] = target: T1, Epidermal growth factor receptor; experiment: Inhibition of EGFR phosphorylation in human NCI-H1975 cells after 6 hrs by Western blotting analysis; assay type: cell-based
[16] = test system: 16HBE14o-; experiment: Induction of nitric oxide production in human 16HBE cells expressing wild type EGFR at 100 uM after 72 hrs by Griess assay; assay type: functional, cell-based
[17] = test system: NCI-H1975; experiment: Ratio of IC50 for human NCI-H1975 cells expressing EGFR L858R/T790M mutant to IC50 for human 16HBE cells

Sequence of Epidermal growth factor receptor (Homo sapiens, UniProt P00533, L858R) (P00533 25-1210 L858R limits assumed): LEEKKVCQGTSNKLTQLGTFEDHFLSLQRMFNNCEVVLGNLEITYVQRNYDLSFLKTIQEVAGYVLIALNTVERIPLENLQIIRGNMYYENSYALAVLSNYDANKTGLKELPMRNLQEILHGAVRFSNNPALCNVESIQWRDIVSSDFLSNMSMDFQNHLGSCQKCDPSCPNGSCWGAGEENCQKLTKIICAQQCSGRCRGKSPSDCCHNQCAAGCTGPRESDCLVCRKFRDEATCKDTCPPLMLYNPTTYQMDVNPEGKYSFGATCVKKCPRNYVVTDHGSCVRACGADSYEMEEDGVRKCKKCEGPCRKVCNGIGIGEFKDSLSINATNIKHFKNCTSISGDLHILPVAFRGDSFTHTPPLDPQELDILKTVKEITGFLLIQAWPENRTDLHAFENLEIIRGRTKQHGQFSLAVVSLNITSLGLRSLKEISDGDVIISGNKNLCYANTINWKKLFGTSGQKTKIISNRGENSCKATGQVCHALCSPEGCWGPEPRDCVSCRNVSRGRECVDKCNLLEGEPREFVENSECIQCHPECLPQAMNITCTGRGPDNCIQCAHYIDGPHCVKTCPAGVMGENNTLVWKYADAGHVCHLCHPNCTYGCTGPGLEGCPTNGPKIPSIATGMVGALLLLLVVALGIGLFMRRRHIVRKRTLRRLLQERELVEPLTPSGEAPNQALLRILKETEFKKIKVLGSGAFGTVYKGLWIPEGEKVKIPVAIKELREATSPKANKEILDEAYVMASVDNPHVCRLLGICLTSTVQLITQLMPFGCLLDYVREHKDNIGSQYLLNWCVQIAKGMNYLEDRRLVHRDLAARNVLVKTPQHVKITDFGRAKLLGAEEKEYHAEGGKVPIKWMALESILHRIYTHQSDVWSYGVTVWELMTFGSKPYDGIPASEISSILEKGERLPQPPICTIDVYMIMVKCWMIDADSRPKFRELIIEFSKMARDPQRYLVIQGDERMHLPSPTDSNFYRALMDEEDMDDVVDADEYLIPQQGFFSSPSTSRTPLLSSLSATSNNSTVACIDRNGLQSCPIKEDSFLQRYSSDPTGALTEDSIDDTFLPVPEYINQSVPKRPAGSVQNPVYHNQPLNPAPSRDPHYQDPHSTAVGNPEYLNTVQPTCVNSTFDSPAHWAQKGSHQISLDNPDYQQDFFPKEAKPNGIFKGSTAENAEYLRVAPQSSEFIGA
Sequence of Epidermal growth factor receptor (Homo sapiens, UniProt P00533, L858R/T790M) (P00533 25-1210 T790M/L858R limits assumed): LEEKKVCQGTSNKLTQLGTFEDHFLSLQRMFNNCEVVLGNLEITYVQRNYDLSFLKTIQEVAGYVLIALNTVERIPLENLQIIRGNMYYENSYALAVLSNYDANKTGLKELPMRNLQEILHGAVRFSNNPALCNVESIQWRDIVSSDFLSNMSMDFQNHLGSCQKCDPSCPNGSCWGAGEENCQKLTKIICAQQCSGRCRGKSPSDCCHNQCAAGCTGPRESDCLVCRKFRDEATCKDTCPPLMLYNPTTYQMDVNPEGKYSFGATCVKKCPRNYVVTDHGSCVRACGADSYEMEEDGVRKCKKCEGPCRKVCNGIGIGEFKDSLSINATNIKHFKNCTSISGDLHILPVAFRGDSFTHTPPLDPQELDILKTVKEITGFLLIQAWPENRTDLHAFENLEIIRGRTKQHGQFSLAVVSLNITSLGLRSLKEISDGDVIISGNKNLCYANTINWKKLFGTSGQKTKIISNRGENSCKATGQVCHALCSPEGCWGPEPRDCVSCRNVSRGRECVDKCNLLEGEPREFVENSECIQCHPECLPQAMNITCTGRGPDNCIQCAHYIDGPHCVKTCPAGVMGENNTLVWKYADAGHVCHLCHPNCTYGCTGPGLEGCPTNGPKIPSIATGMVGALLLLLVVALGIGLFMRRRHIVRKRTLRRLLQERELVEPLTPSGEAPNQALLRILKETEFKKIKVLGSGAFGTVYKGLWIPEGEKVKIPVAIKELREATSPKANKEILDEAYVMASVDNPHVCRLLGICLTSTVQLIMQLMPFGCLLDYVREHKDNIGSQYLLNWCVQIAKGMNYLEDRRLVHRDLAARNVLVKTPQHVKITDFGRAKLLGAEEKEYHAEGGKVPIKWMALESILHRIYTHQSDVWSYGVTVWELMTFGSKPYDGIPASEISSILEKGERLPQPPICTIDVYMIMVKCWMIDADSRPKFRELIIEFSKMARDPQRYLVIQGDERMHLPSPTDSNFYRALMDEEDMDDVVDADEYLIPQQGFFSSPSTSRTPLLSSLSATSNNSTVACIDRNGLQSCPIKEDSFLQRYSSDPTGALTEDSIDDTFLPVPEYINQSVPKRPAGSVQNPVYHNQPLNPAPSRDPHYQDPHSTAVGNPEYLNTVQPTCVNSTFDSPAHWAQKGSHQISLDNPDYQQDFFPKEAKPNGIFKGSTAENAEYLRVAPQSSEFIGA
T1 sequence (P00533 whole entry): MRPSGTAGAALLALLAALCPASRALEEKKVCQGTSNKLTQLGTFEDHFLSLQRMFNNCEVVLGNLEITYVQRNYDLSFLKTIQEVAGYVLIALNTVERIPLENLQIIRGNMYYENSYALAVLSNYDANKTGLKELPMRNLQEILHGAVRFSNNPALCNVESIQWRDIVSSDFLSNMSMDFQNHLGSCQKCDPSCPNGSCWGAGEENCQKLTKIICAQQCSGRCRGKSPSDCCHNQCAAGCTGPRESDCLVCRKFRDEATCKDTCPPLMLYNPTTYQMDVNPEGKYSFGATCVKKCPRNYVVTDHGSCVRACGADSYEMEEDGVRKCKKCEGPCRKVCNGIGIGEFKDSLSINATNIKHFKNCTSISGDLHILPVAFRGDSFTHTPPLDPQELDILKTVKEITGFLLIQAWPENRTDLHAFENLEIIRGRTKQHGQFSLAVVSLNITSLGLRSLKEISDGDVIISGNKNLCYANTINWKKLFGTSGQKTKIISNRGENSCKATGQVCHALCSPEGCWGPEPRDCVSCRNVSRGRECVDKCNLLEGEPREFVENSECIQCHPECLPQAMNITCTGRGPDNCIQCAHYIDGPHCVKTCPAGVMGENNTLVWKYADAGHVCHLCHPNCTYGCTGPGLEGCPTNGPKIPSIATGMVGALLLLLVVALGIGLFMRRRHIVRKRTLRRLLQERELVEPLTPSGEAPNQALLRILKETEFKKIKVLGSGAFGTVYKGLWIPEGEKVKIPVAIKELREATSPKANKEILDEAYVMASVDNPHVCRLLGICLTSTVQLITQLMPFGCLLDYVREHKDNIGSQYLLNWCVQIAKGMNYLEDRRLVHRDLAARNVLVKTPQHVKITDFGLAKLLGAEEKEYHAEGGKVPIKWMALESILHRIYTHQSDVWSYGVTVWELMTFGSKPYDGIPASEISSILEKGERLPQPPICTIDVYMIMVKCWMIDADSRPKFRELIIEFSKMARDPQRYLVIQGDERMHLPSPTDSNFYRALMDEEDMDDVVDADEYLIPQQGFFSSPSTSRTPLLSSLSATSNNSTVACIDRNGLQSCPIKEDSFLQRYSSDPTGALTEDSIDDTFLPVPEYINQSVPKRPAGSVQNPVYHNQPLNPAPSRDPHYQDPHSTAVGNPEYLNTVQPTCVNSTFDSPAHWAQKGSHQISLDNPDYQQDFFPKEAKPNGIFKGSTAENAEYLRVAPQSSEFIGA

Row | Structure (SMILES) | inhibition [1] | inhibition [2] | inhibition [3] | IC50 [4] [nM] | IC50 [5] [nM] | IC50 [6] [nM] | Activity [7] | IC50 [8] [nM] | IC50 [9] [nM] | IC50 [10] [nM] | IC50 [11] [nM] | IC50 [12] [nM] | Ratio IC50 [13] | Activity [14] | inhibition [15] | Activity [16] | Ratio IC50 [17]
1 | C=CC(=O)Nc1cccc(Oc2nc(Nc3ccc(N4CCN(C)CC4)cc3OC)ncc2Cl)c1 | Active | Active | Active |  |  |  |  |  |  |  |  |  |  |  |  |  | 
2 | COc1cc(N2CCN(C)CC2)ccc1Nc1ncc(Cl)c(Oc2ccc(CCOc3no[n+]([O-])c3S(=O)(=O)c3ccccc3)cc2)n1 |  |  |  | 960 | 479 | 5360 | Active | 372 | 2940 | 1930 | 2420 | 3750 |  |  |  |  | 
3 | C=CC(=O)N1CCN(c2ccc(Nc3ncc(Cl)c(Oc4cccc(COc5no[n+]([O-])c5S(=O)(=O)c5ccccc5)c4)n3)c(OC)c2)CC1 | Active | Active | Active | 45 | 348 | 370 | Active | 55 | 350 | 22 | 1930 | 1720 | 35 | Active | Dose-dependent effect | Active | 35
4 | C=CC(=O)N1CCN(c2ccc(Nc3ncc(Cl)c(Oc4ccc(COc5no[n+]([O-])c5S(=O)(=O)c5ccccc5)cc4)n3)c(OC)c2)CC1 |  |  |  | 410 | 4660 | > 10000 |  | 154 | > 10000 | 4900 | 3370 | 3900 |  |  |  |  | 
5 | COc1cc(N2CCN(C)CC2)ccc1Nc1ncc(Cl)c(Oc2cccc(COc3no[n+]([O-])c3S(=O)(=O)c3ccccc3)c2)n1 |  |  |  | 19 | 1360 | 150 |  | 52 | 130 | 63 | 2210 | 4190 | 35 |  |  |  | 35
6 | COc1cc(N2CCN(C)CC2)ccc1Nc1ncc(Cl)c(Oc2ccc(COc3no[n+]([O-])c3S(=O)(=O)c3ccccc3)cc2)n1 |  |  |  | 140 | 2200 | 1530 |  | 221 | 1090 | 863 | 2300 | 3660 |  |  |  |  | 
7 | COc1cc(N2CCN(C)CC2)ccc1Nc1ncc(Cl)c(Oc2ccc(CCCOc3no[n+]([O-])c3S(=O)(=O)c3ccccc3)cc2)n1 |  |  |  | 780 | 551 | > 10000 | Active | 315 | 2280 | 4820 | 3520 | 2840 |  |  |  |  | 
8 | COc1cc(N2CCC(O)CC2)ccc1Nc1ncc(Cl)c(Oc2cccc(COc3no[n+]([O-])c3S(=O)(=O)c3ccccc3)c2)n1 |  |  |  | 68 | 1200 | 490 | Active | 68 | 240 | 36 | 3250 | 3900 | 35 |  |  | Active | 35
9 | COc1cc2ncnc(Nc3ccc(F)c(Cl)c3)c2cc1OCCCN1CCOCC1 |  |  |  |  |  |  | Active |  |  |  |  |  |  |  |  | Active | 
10 | COc1cc(N2CCC(O)CC2)ccc1Nc1ncc(Cl)c(Oc2ccc(COc3no[n+]([O-])c3S(=O)(=O)c3ccccc3)cc2)n1 |  |  |  | 250 | 357 | 3220 |  | 148 | 3150 | 95 | 2190 | 4250 |  |  |  |  | 
